The text below walks through data of ChEMBL document CHEMBL5331103, “Discovery of novel 2-hydroxyl-4-benzyloxybenzyl aniline derivatives as potential multifunctional agents for the treatment of Parkinson's disease” (Eur J Med Chem, 2023).

The structures appear in SMILES notation. The source made the active and inactive calls. The rule behind the calls is not given here.

The subject of data set [1] is Mus musculus. Kind of data set: Anti-parkinson's disease activity in MPTP-induced C57BL/6C mouse model assessed as reduction in total time required to reach the bottom of pole at 53.5 mg/kg, IG preadministered with MPTP for 5 days followed by compound administration for 3 weeks and measured 1 hrs post last dose by pole test. The format is functional, organism-based.

Data set [2] deals with T1, Amine oxidase [flavin-containing] B (Homo sapiens, UniProt P27338).
T1 sequence (P27338 whole entry): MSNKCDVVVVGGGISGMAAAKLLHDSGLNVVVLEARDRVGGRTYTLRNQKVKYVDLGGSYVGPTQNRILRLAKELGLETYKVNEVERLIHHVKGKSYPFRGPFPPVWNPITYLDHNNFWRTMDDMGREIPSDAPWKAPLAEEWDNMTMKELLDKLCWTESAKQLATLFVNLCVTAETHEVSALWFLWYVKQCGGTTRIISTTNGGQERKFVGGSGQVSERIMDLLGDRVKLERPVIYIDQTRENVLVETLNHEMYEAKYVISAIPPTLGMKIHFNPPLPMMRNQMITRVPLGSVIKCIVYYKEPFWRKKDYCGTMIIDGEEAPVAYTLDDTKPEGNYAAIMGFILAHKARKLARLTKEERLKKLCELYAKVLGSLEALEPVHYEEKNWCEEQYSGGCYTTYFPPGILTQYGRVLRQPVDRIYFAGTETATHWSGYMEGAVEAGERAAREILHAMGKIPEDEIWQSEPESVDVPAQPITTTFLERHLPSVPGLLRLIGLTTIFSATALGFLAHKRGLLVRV
Description: Inhibition of MAO-B (unknown origin) using kynuramine as substrate preincubated for 30 mins followed by substrate addition and measured after 30 mins by fluorescence based analysis

The nature of data set [3]: Metal chelating activity assessed as Fe2+-compound complex formation by measuring increase in absorbance incubated for 2 hrs in the presence of FeSO4 by UV-Vis spectra analysis.
The test system of data set [4] is BV-2. Kind of data set: Anti-neuroinflammatory activity in mouse BV-2 cells assessed as inhibition of LPS-induced NO production at 2.5 uM preincubated for 30 mins followed by LPS stimulation and measured after 24 hrs by Griess reagent based assay relative to control. The format is functional. The conditions noted are these: time 24.5 hrs. Background: The Griess reaction detects nitrite, a stable product of nitric oxide.

The target in data set [5] is T1, Amine oxidase [flavin-containing] B. Kind of data set: Competitive inhibition of MAO-B (unknown origin) using kynuramine as substrate assessed as […] at 0.007 to 0.028 uM by Lineweaver-Burk plot analysis. Conditions: dose 0.007-0.028 µM.
For data set [6], the system named is PC-12. Kind of data set: Neuroprotective activity against H2O2-induced cell damage in rat PC-12 cells assessed as increase in cell viability at 50 uM preincubated for 2 hrs followed by H2O2 addition and measured after 24 hrs by MTT assay (reference value: 50.3%). Conditions: time 26 hrs. The format is functional. Background: Tetrazolium dyes change colour on reduction, which living cells bring about.

The subject of data set [7] is Mus musculus. Kind of data set: Anti-parkinson's disease activity in MPTP-induced C57BL/6C mouse model assessed as reduction in time required to turn the head to 180 degree at 53.5 mg/kg, IG preadministered with MPTP for 5 days followed by compound administration for 3 weeks and measured 1 hrs post last dose by pole test. The format is functional, organism-based.
The nature of data set [8]: Metal chelating activity assessed as Fe2+-compound complex formation by measuring increase in absorbance incubated for 2 hrs in the presence of FeSO4 at 30 to 900 uM by UV-Vis spectra analysis.
Data set [9] deals with Mus musculus. Nature of the data set: Anti-parkinson's disease activity in MPTP-induced C57BL/6C mouse model assessed as reduction in beam walking test time at 53.5 mg/kg, IG preadministered with MPTP for 5 days followed by compound administration for 3 weeks and measured 1 hrs post last dose by beam-walking test. The format is functional, organism-based.
Data set [10] deals with PC-12. Nature of the data set: Neuroprotective activity against H2O2-induced cell damage in rat PC-12 cells assessed as increase in cell viability at 2.5 uM preincubated for 2 hrs followed by H2O2 addition and measured after 24 hrs by MTT assay (reference value: 50.3%). Type of data set: functional. The conditions noted are these: time 26 hrs.
For data set [11], the system named is BV-2. Kind of data set: Inhibition of LPS-induced NFkappaB activation in mouse BV-2 cells assessed as reduction in IkappaBalpha phosphorylation at 1 to 10 uM preincubated for 30 mins followed by LPS-stimulation and measured after 16 hrs by Western blot analysis. The format is cell-based. Conditions: dose 1-10 µM, time 16.5 hrs. Background: In western blotting, separated proteins are transferred to a membrane and probed.

Data set [12] can be described thus: Metal chelating activity assessed as Fe3+-compound complex formation by measuring increase in absorbance incubated for 2 hrs in the presence of FeCl3 by UV-Vis spectra analysis.
In data set [13] the test system is BV-2. Nature of the data set: Inhibition of LPS-induced NFkappaB activation in mouse BV-2 cells assessed as inhibition of p65 translocation to nucleus at 1 to 10 uM preincubated for 30 mins followed by LPS-stimulation and measured after 16 hrs by Western blot analysis. Type of data set: cell-based. Conditions: dose 1-10 µM, time 16.5 hrs.
Data set [14] has as its system BV-2. Nature of the data set: Anti-neuroinflammatory activity in mouse BV-2 cells assessed as inhibition of LPS-induced NO production at 10 uM preincubated for 30 mins followed by LPS stimulation and measured after 24 hrs by Griess reagent based assay relative to control. The format is functional. Conditions: time 24.5 hrs.
Data set [15] is described as follows: Metal chelating activity assessed as Al3+-compound complex formation by measuring increase in absorbance incubated for 2 hrs in the presence of AlCl3 by UV-Vis spectra analysis.
Data set [16] addresses T2, Amine oxidase [flavin-containing] A (Homo sapiens, UniProt P21397).
T2 sequence (P21397 whole entry): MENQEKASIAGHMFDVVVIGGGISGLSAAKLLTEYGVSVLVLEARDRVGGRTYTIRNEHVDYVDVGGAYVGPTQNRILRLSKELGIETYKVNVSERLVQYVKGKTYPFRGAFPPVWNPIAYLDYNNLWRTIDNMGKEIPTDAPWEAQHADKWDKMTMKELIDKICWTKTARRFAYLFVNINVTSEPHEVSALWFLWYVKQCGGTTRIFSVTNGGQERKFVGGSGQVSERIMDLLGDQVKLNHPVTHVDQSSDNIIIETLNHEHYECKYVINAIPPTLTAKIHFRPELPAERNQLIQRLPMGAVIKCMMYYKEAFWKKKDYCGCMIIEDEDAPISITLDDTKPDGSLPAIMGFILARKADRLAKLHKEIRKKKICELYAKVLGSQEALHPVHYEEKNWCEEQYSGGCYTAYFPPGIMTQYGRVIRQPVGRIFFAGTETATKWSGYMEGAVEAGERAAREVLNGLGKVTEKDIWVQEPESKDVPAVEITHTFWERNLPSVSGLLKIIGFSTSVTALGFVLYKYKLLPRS
Kind of data set: Inhibition of MAO-A (unknown origin) using kynuramine as substrate at 10 uM preincubated for 30 mins followed by substrate addition and measured after 30 mins by fluorescence based analysis relative to control. Conditions: 0.5 h, time 60 min.

Data set [17] is described as follows: Metal chelating activity assessed as Cu2+-compound complex formation by measuring increase in absorbance incubated for 2 hrs in the presence of CuCl2 by UV-Vis spectra analysis.
For data set [18], the system named is BV-2. Kind of data set: Inhibition of LPS-induced ROS production in mouse BV-2 cells at 2.5 uM preincubated for 30 mins followed by LPS-stimulation and measured after 30 mins by DCFH-DA based fluorescence microplate reader analysis relative to control. Type of data set: functional. Conditions: BV-2, 1 h, time 60 min.
Data set [19] is described as follows: Metal chelating activity assessed as Fe2+-compound complex formation by measuring red shift incubated for 2 hrs in the presence of FeSO4 by UV-Vis spectra analysis.
In data set [20] the test system is BV-2. Nature of the data set: Cytotoxicity against mouse BV-2 cells assessed as reduction in cell viability upto 10 uM incubated for 30 mins by MTT assay. The format is toxicity, cell-based. The conditions noted are these: bv-2, 0.5 h.

In the case of `Oc1cc(OCc2ccc(F)cc2)ccc1CNc1ccccc1`, the outcome in [1], in data set [3], in data set [7], in data set [8], in [9] and in [12] was Active. For the same compound, the result in data set [15], in data set [17] and in data set [19] was Active. In addition, in data set [2], the IC50 came to 14 nM. The inhibition at 2.5 µM in data set [4] stood at 28%; in data set [18] it was 21.2%. Besides, the “inhibition (INH)” value in data set [5] is “Active”. Further, the results for the Activity in data set [6], in data set [10] and in [20] were 77.2%, 59.8% and “Non-Toxic”, respectively. For the same compound, the inhibition entry in data set [11] and in data set [13] was “Active” in each case. Moreover, the inhibition at 10 µM in [14] came out at 76.1%; in data set [16], 43.7%.

One may read the IC50 as the point on the concentration scale where inhibition reaches its midpoint. As a reminder, the inhibition is how much of the control response was suppressed.
